# In publication PMC10783034, “Pharmacokinetic and pharmacodynamic evaluation of the atypical tetracyclines chelocardin and amidochelocardin in murine infection models” (Microbiology Spectrum, 2023):
# Key:
# E. coli ATCC 25922 [1] = experiment: Neutropenic thigh infection model in CD-1 mice; type: in vivo; conditions: 20 mg/kg IV BID, positive control
# Experimental: (§1) The inoculum for K. pneumoniae ATCC 43816 was prepared freshly as described previously to yield 1 × 10^4 cfu/mL ([56]). The inoculum of the E. coli ATCC 25922 was diluted from a frozen stock to 1.4 × 10^6 cfu/ml. N = 6 animals per group were used for both tested strains. N = 4 mice were used in the pre-treatment group in the neutropenic thigh infection model with E. coli ATCC 25922. Mice were rendered neutropenic by administration of 150 mg/kg and 100 mg/kg cyclophosphamide intraperitoneally on days −4 and −1, respectively. On the day of infection (day 0), mice received 30 µL of the inoculum of K. pneumoniae ATCC 43816 into each lateral thigh under isoflurane anesthesia, corresponding to 6 × 10^2 cfu/mouse. In the model with E. coli, mice received 50 µL of the inoculum of E. coli into each lateral thigh under isoflurane anesthesia, corresponding to 1.4 × 10^5 cfu/mouse. Whilst still under anesthesia, mice were administered a dose of Buprenorphine (0.03 mg/kg) subcutaneously for pain relief. 24 hours after infection, mice were euthanized by slowly introducing CO2 and cardiac puncture to remove blood from the heart immediately after death. Kidneys and thighs were aseptically removed. 24 hours after infection, the clinical score of every individual animal was assessed. Clinical scoring comprises the assessment of different parameters such as spontaneous behavior, posture, appearance, and provoked behavior. Each parameter was assessed with a score of 0 to 3 (ascending severity from 0 to 3). The humane endpoint was reached when the clinical score of a single parameter was 3 or if the total clinical score was higher than 8. Whole blood was collected into Eppendorf tubes coated with 0.5 M EDTA. Organs were homogenized in 0.9% NaCl solution. Organs and blood were plated onto agar plates in duplicates in serial dilutions and incubated at 37°C for 24 hours. 25 µL per dilution of the homogenized organ was spotted onto agar plates. In addition, 1 mL of homogenized organ is streaked onto an agar plate in technical duplicates. If no single colony is observed then, this would result in 0 cfu/mL. Thus, the threshold of detection is 0 log10 cfu/g. The groups used in the different neutropenic thigh infection models are found in Tables S4 through S7. In brief, levofloxacin with 3.3 mg/kg TID IP was used as a positive control antibiotic for the K. pneumoniae model, whereas ciprofloxacin with 20 mg/kg BID IV was used for the E. coli model, respectively. The rationale for TID dosing was based on the PK/PD index of fAUC/MIC for fluoroquinolones ([57] [–] [59]). […] Moreover, CHD and CDCHD were administered at 10 mg/kg SC QID (t = 1,3,5,7 hours), 15 mg/kg SC TID (t = 1,4,7 hours), and 50 mg/kg SC QD (t = 1 hour) (Tables S5 and S6). In the E. coli neutropenic thigh infection model, CHD and CDCHD, respectively, were administered at 50 mg/kg IV QD (t = 1 hour) and 15 mg/kg IV BID (t = 1 and 6 hours) (Table S7).
# (§2) For the neutropenic thigh infection model with E. coli ATCC 25922, the thighs were regarded as two independent infection sites throughout the experiment. For statistical analysis, individual thighs (left and right) were treated as separate samples although these were not completely independent values. For the neutropenic thigh infection model with K. pneumoniae ATCC 43816, the individual thighs (left and right) were treated as one sample. For the efficacy models, the non-parametric Kruskal-Wallis test was used with GraphPad Prism 9.4.1. For the ascending urinary tract infection model, an ordinary one-way ANOVA with Dunnett’s multiple comparison test was used with GraphPad Prism 9.4.1.
# E. coli ATCC 25922 [2] = experiment: MIC determination; type: cell-based; conditions: Escherichia coli, ATCC25922; MHB medium; read-out: MIC
# Experimental: (§3) The assay was conducted as described previously ([54]) with the following modifications. The MIC was tested against the K. pneumoniae strain ATCC 43816 in an MHB (not cation-adjusted) medium. CHD and CDCHD were tested in concentrations ranging from 0.078 to 10 µg/mL. Moreover, the MIC was determined for the following strains: K. pneumoniae DSM-30104, E. faecium DSM-20477, S. aureus DSM-346, P. aeruginosa DSM-11128, A. baumannii DSM-30008, E. aerogenes DSM-30053, E. coli ATCC 25922, and E. coli C175-94. All strains were grown in MHB medium, except for E. faecium, which was grown in TSB. CHD, epi-CDH, and CDCHD were tested in concentrations ranging from 0.125 to 64 µg/mL as described previously ([19]).
# [3] = Histopathological analysis of kidneys and bladder in the ascending urinary tract infection model (satellite groups); type: in vivo, mice; design: histopathological score Papilla / histopathological score Bladder: scale not given here
# Experimental: (§4) The model was conducted as described previously ([27], [60]). In brief, n = 21 animals were used per group in the main study, and n = 3 animals per group in satellite groups for histopathological analysis. Three days before the start of the study and during the study, mice had free access to 5% glucose as drinking water. Fresh overnight colonies of E. coli from a 5% horse blood agar plate were suspended in PBS pH 7.4 to approximately 10^9 cfu/mL. Approximately 1 hour before inoculation, mice were treated orally with […] Nurofen (20 mg ibuprofen/mL corresponding to approximately 30 mg/kg) as a pain relief. Urine was removed from the bladder by gently pressing the abdomen and mice were anaesthetized with 0.15 mL Zoletil mix SC. Thereafter, the mice were inoculated. A syringe with a catheter, containing the bacterial suspension was inserted via the urethra into the bladder and 50 µL of the inoculum was slowly injected into the bladder. Hereafter, the mouse was placed in the cage and kept in a warming cabinet until fully awake (approximately 4 hours). The mice were treated with CHD (12 mg/kg SC BID), CDCHD (12 mg/kg SC BID), gentamicin (100 mg/kg SC BID), or vehicle BID (2nd dose was administered approximately 6 hours after the 1st dose on each day) on day 1, that is, first dose around 24 hours post-infection, and day 2 post-inoculation. The mice were observed during the study and scored based on their behavior and clinical signs. Clinical scoring comprised assessment of piloerection in the skin, activity (movement, curiosity), and appearance of eyes. The scoring range comprised 0–4. In our model, a maximum score of 1; thus, only mild discomfort was observed. On day 3 post-inoculation and after sampling urine, mice were euthanized by cervical dislocation, and bladder and kidneys were removed from 21 mice in each treatment group aseptically for cfu determination. The bladder and kidneys were stored at −80°C and later homogenized in 0.5 or 1 mL saline, respectively. Colony counts of urine were determined immediately. From the three additional mice in each treatment group (satellite groups), urine and plasma were sampled and frozen at −80°C, and bladders, kidneys, and liver were collected in 4% buffered formalin. Cfu was determined in urine samples within 2–3 hours after sampling. Frozen organs were thawed and homogenized with steel beads using a tissue lyser. All samples, urine, kidney, and bladder, were 10-fold diluted in saline and 20 µL spots were applied on blue agar plates in duplicates. In addition, undiluted samples of urine (2–100 μL depending on the available amount of urine) were spread on a separate agar plate to determine the colony counts at the lowest possible detection level. All agar plates were incubated for 18–22 hours at 35°C in ambient air.
# Approximately 3 µm thick sections of formalin-fixed, paraffin-embedded samples of liver and kidney were analyzed blinded, and randomized to the experimental groups by a trained veterinarian. […] Kidneys were analyzed for changes in the glomeruli (not found), tubular dilation (1 = mild or up to 20% of tubuli affected, 2 = moderate or 25-40% of tubuli affected, 3 = severe 50% or more), and inflammatory infiltrate in the pelvis (1 = mild, 2 = moderate, 3 = severe).
# E. coli C175-94 [4] = experiment: Ascending urinary tract infection model in OF-1 mice; type: in vivo; conditions: CHD/CDCHD 12 mg/kg SC BID, gentamicin 100 mg/kg SC BID
# Experimental: as §4, §2
# E. coli C175-94 [5] = experiment: MIC determination; type: cell-based; conditions: Escherichia coli, C17594; MHB medium; read-out: MIC
# Experimental: as §3
# K. pneumoniae ATCC 43816 [6] = experiment: Neutropenic thigh infection model in CD-1 mice; type: in vivo; conditions: levofloxacin 3.3 mg/kg IP TID
# Experimental: as §1, §2
# K. pneumoniae ATCC 43816 [7] = experiment: MIC determination; type: cell-based; conditions: Klebsiella pneumoniae, ATCC43816; MHB (not cation-adjusted) medium; read-out: MIC
# Experimental: as §3
# [8] = infected mice, CHD/CDCHD 12 mg/kg SC BID, gentamicin 100 mg/kg SC BID
# [9] = 24 hours after infection, CHD/CDCHD 10 mg/kg SC QD or BID, vs vehicle
structure (smiles),measurement,setting,value
"O=C(O)c1cn(C2CC2)c2cc(N3CCNCC3)c(F)cc2c1=O [ciprofloxacin, reference compound]","bacterial burden in the thigh, compared with CHD and CDCHD",E. coli ATCC 25922 [1],exerted a stronger effect
same,MIC,E. coli ATCC 25922 [2],0.008 µg/mL
"CNC(C)C1CCC(N)C(OC2C(N)CC(N)C(OC3OCC(C)(O)C(NC)C3O)C2O)O1 (stereo not drawn) [gentamicin, reference compound]",histopathological score Bladder,[3]; animal No. 1,1
same,histopathological score Bladder,[3]; animal No. 2,0
same,histopathological score Bladder,[3]; animal No. 3,1
same,histopathological findings in bladder,[3]; [8],"mild, focal, submucosal inflammatory aggregates"
same,histopathological findings in kidneys,[3]; [8],only a mild tubulus dilation without inflammatory cells in the renal pelvis
same,animals with sterile kidneys,E. coli C175-94 [4]; control animals 23.8%,95.2%
same,bacterial burden in kidneys,"E. coli C175-94 [4]; day 3, vs vehicle",strong and significant reduction
same,bacterial burden in the bladder,"E. coli C175-94 [4]; day 3, vs vehicle",The same was observed for gentamicin
same,MIC,E. coli C175-94 [5],0.75 µg/mL
"C[C@H]1COc2c(N3CCN(C)CC3)c(F)cc3c(=O)c(C(=O)O)cn1c23 [levofloxacin, reference compound]",bacterial burden in blood,K. pneumoniae ATCC 43816 [6]; [9],The same was found in blood
same,bacterial burden in the thigh,K. pneumoniae ATCC 43816 [6]; [9],A significant reduction of bacterial burden
same,bacterial burden in the kidney,"K. pneumoniae ATCC 43816 [6]; higher-dose studies: 10 mg/kg SC QID, 15 mg/kg SC TID, 50 mg/kg SC QD",did not reduce bacterial burden with statistical significance
same,MIC,K. pneumoniae ATCC 43816 [7],0.08 µg/mL
